Laboratory results: ChEMBL document CHEMBL5050844 (2019)

Tests used:
Type in all cases: functional
[1] = Induction of anti-CD3 antibodies-stimulated human T cell activation in immunocompetent mouse assessed fold increase in TNF-alpha secretion at 90 mg/kg, ip administered thrice a day
[2] = Induction of anti-CD3 antibodies-stimulated human CD8+ T cell activation in immunocompetent mouse assessed fold increase in CD25 expression at 90 mg/kg, ip administered twice a day
[3] = Induction of anti-CD3 antibodies-stimulated human T cell activation in immunocompetent mouse assessed fold increase in IFN-gamma secretion at 90 mg/kg, ip administered twice a day
[4] = Induction of anti-CD3 antibodies-stimulated human T cell activation in immunocompetent mouse assessed fold increase in IL-2 secretion at 90 mg/kg, ip administered thrice a day
[5] = Induction of anti-CD3 antibodies-stimulated human T cell activation in immunocompetent mouse assessed fold increase in IFN-gamma secretion at 90 mg/kg, ip administered thrice a day
[6] = Induction of anti-CD3 antibodies-stimulated human T cell activation in immunocompetent mouse assessed fold increase in IL-2 secretion at 90 mg/kg, ip administered twice a day
[7] = Induction of anti-CD3 antibodies-stimulated human T cell activation in immunocompetent mouse assessed fold increase in TNFalpha secretion at 90 mg/kg, ip administered twice a day
[8] = Induction of anti-CD3 antibodies-stimulated human CD8+ T cell activation in immunocompetent mouse assessed fold increase in CD25 expression at 45 mg/kg, po administered twice a day
Note: reference of the scale not given here.

Row | Structure (SMILES) | fold change (FC) [1] | fold change (FC) [2] | fold change (FC) [3] | fold change (FC) [4] | fold change (FC) [5] | fold change (FC) [6] | fold change (FC) [7] | fold change (FC) [8]
1 | C[C@H](Sc1nncn1C)c1cccc(NC(=O)c2cccc(C(F)(F)F)n2)c1 | >2.5 | <1 | 1 | >2.5 | 2.01 | >2.5 | >2.5 | 
2 | Cn1cnnc1CC1(c2cccc(N3Cc4c(cc(CN5CCC6(CC6)C5)cc4C(F)(F)F)C3=O)c2)COC1 |  |  |  |  |  |  |  | 1
3 | Cc1cc(C(=O)Nc2cccc(C3(Cc4nncn4C)COC3)c2)nc(C2CC2)n1 |  |  |  |  |  |  |  | 1
4 | C[C@@H](Sc1nncn1C)c1cccc(NC(=O)c2cccc(C(F)(F)F)n2)c1 | <1 | <1 | <1 | <1 | <1 | <1 | 1 | 
